The source of these data is article PMC10744391, “Sulfated Triterpene Glycosides from the Far Eastern Sea Cucumber Cucumaria djakonovi: Djakonoviosides C1, D1, E1, and F1; Cytotoxicity against Human Breast Cancer Cell Lines; Quantitative Structure–Activity Relationships” (Marine Drugs, 2023).

“Also recorded” adds a separate entry of the source. Structures can show the parent of a compound that is named as a salt. Where two headings read alike, the source gives them in different places.

Common to all, as to format: cell-based
The test system of data set [1] is triple-negative MDA-MB-231 human breast cancer cell line. The data set can be described thus: cells. The note with it: for IC50: read-out: Cytotoxicity, IC50, MDA-MB-231; for Selectivity Index (SI), MDA-MB-231: ratio of IC50 for healthy (MCF-10A) and cancer cells.
In data set [2] the test system is T-47D human breast cancer cell line. The data set can be described thus: cells. The note with it: for IC50: read-out: Cytotoxicity, IC50, T-47D; for Selectivity Index (SI), T-47D: ratio of IC50 for healthy (MCF-10A) and cancer cells.
The test system of a further data set is human erythrocytes. As to the kind of experiment: Hemolytic activity against human erythrocytes. The settings on record: for HC50: Erythrocyte, read-out: ED50, Erythrocytes (hemolytic activity); for hemolytic activity (in words): concentration range up to 50 µM. The protocol:
Human blood (B(III) Rh+) was used to obtain erythrocytes by centrifuging 450× g three times for 5 min with phosphate-buffered saline (PBS) (pH 7.4) at 4 °C on centrifuge LABOFUGE 400R (Heraeus, Hanau, Germany). Ice-cold PBS (pH 7.4) was used for resuspension of erythrocytes residue to a final optical density of 1.5 at 700 nm, which was kept on ice. Then, 20 µL of tested compound solution or control—djakonovioside A1 [5]—were added to 180 µL of erythrocyte suspension in V-bottom 96-well plates and exposed for 1 h at 37 °C. Next, centrifugation at 900× g for 10 min on laboratory centrifuge LMC-3000 (Biosan, Riga, Latvia), led to layers’ separation, and 100 µL of supernatant was carefully decanted and transferred into new flat-plate each. The values of erythrocyte lysis were measured on microplate photometer Multiskan FC (Thermo Fisher Scientific, Waltham, MA, USA) at λ = 570 nm as hemoglobin concentration in supernatant. The effective dose, causing lysis of 50% erythrocytes (ED50), was calculated with SigmaPlot 14.0 software. All the experiments were carried out in triple repetitions, p ≤ 0.05.

For data set [3], the system named is MCF-7 human breast cancer cell line. As to the kind of experiment: cells. The settings on record: for IC50: read-out: Cytotoxicity, IC50, MCF-7; for Selectivity Index (SI), MCF-7: ratio of IC50 for healthy (MCF-10A) and cancer cells.
A short description of a further data set: in vitro. The note with it: human.
Setting [4] is: human erythrocytes, 1 h at 37 °C, dose causing lysis of 50% erythrocytes.

By IC50 is commonly meant the concentration that inhibits the measured activity by half. Consider `CO[C@@H]1[C@@H](O)[C@H](O[C@@H]2[C@@H](O)[C@H](O[C@H]3[C@H](O)[C@@H](O)[C@H](O[C@H]4[C@H](O[C@H]5CC[C@]6(C)[C@@H]7CCC89C(=O)O[C@@](C)(C[C@@H](O)CC(C)C)[C@H]8[C@@H](OC(C)=O)C[C@@]9(C)C7=CC[C@H]6C5(C)C)OC[C@@H](OS(=O)(=O)O)[C@@H]4O)O[C@@H]3C)OC[C@H]2O)O[C@H](CO)[C@H]1O` (stereo partly drawn) [djakonovioside A1, reference compound], for which the concentration for half-maximal inhibition (IC50) in data set [1] (MTT, 24 h incubation) is 12.1 ± 0.54 µM; in data set [2] (MTT, 24 h incubation), 15.2 ± 0.96 µM; in data set [3] (MTT, 24 h incubation) it was 26.43 ± 0.14 µM. Further, the “Selectivity Index (SI), MDA-MB-231” value in data set [1] is recorded as 1.45. Besides, the “Selectivity Index (SI), T-47D” value in data set [2] amounted to 1.15. Further, in the data set with human erythrocytes (setting [4]), the “ED50, Erythrocytes (hemolytic activity)” value was found to be 2.52 ± 0.23 µM. Moreover, in data set [3], the “Selectivity Index (SI), MCF-7” value came out at 0.66.
Turning to `COC1C(O)C(CO)OC(OC2C(O)C(CO)OC(OC3C(CO)OC(OC4C(OC5CCC6(C)C7CCC89C(=O)OC(C)(CCC=C(C)C)C8C(OC(C)=O)CC9(C)C7=CCC6C5(C)C)OCC(OS(=O)(=O)O)C4O)C(OC4OCC(O)C(O)C4O)C3O)C2O)C1O` [djakonovioside D1, 3β-O-{3-O-methyl-β-D-glucopyranosyl-(1→3)-β-D-glucopyranosyl-(1→4)-[(1→2)-β-D-xylopyranosyl]-β-D-glucopyranosyl-(1→2)-4-O-sodium sulfate-β-D-xylopyranosyl}-16β-acetoxyholosta-7,24-dien], the IC50 in data set [1] (Homo sapiens, MDA-MB-231, 24 h) is above 50 µM; in data set [2] (Homo sapiens, T47D, 24 h), above 50 µM; in data set [3] (Homo sapiens, MCF7, 24 h), above 50 µM. Further, the HC50 in the data set with human erythrocytes (setting [4]) was 7.74 ± 0.37 µM. Further, the “hemolytic activity (in words)” value was “slightly lower but significant” in the data set on human erythrocytes (human erythrocytes, listed as D1) and “moderate hemolytic activity; also recorded: slightly less hemolytic” with human erythrocytes (human erythrocytes, listed as Djakonovioside D1). Moreover, the 50% inhibitory concentration (IC50) at 24 h in “in vitro” is above 50 µM.
`COC1C(O)C(COS(=O)(=O)O)OC(OC2C(O)C(COS(=O)(=O)O)OC(OC3C(C)OC(OC4C(OC5CCC6(C)C7CCC8(C)C(C(C)(O)C(=O)CC=C(C)C)CCC8(C)C7=CCC6C5(C)C)OCC(OS(=O)(=O)O)C4O)C(OC4OCC(O)C(O)C4O)C3O)C2O)C1O` [djakonovioside F1, 3β-O-{6-O-sodium sulfate-3-O-methyl-β-D-glucopyranosyl-(1→3)-6-O-sodium sulfate-β-D-glucopyranosyl-(1→4)-[(1→2)-β-D-xylopyranosyl]-β-D-quinovopyranosyl-(1→2)-4-O-sodium sulfate-β-D-xylopyranosyl}-(20R)-hydroxy-22-oxo-lanosta-7,24-dien]: the 50% inhibitory concentration (IC50) stood at 20 ± 0.63 µM in data set [1] (Homo sapiens, MDA-MB-231, 24 h); 22.5 ± 1.78 µM in data set [2] (Homo sapiens, T47D, 24 h); 36.8 ± 0.73 µM in data set [3] (Homo sapiens, MCF7, 24 h). The “Selectivity Index (SI), MDA-MB-231” value in data set [1] was 1.16. In data set [2], the “Selectivity Index (SI), T-47D” value was 1.02. Moreover, the HC50 in the data set with human erythrocytes (Homo sapiens, 1 h) was found to be 0.51 ± 0.01 µM. The “hemolytic activity (in words)” value with human erythrocytes (human erythrocytes) is “high hemolytic effect”. Moreover, the “Selectivity Index (SI), MCF-7” value in data set [3] was found to be 0.63. The compound further displayed an IC50 at 24 h in “in vitro” of 23.2 ± 0.78 µM.
On to `C=C(C)CCCC1(C)OC(=O)C23CCC4C(=CCC5C(C)(C)C(OC6OCC(OS(=O)(=O)O)C(O)C6OC6OCC(OC7OC(CO)C(O)C(OC8OC(CO)C(O)C(OC)C8O)C7O)C(O)C6OC6OCC(O)C(O)C6O)CCC45C)C2(C)CC(OC(C)=O)C13` (stereo not drawn) [djakonoviosides C1], for which the “hemolytic activity (in words)” value in the data set on human erythrocytes (human erythrocytes) is recorded as “slightly lower but significant”.
`COC1C(O)C(CO)OC(OC2C(O)C(CO)OC(OC3C(C)OC(OC4C(OC5CCC6(C)C7CCC89C(=O)OC(C)(CC=CC(C)(C)O)C8C(OC(C)=O)CC9(C)C7=CCC6C5(C)C)OCC(OS(=O)(=O)O)C4O)C(OC4OCC(O)C(O)C4O)C3O)C2O)C1O` (stereo not drawn) [frondoside A2-3]: the IC50 in data set [1] (Homo sapiens, MDA-MB-231, 24 h) is above 50 µM; in data set [2] (Homo sapiens, T47D, 24 h), above 50 µM; in data set [3] (Homo sapiens, MCF7, 24 h) it was above 50 µM. Moreover, the HC50 in the data set on human erythrocytes (setting [4]) was above 50 µM. Moreover, the “hemolytic activity (in words)” value was “absence of the activity” in the data set on human erythrocytes (human erythrocytes) and “did not show hemolytic or cytotoxic activity” in the data set on human erythrocytes (human erythrocytes, listed as Frondoside A2-3). In “in vitro”, the IC50 at 24 h is above 50 µM.
Turning to `COC1C(O)C(COS(=O)(=O)O)OC(OC2C(O)C(COS(=O)(=O)O)OC(OC3C(C)OC(OC4C(OC5CCC6(C)C7=CCC8(C)C(C(C)=O)CCC8(C)C7CCC6C5(C)C)OCC(OS(=O)(=O)O)C4O)C(OC4OCC(O)C(O)C4O)C3O)C2O)C1O` (stereo not drawn) [isokoreoside A], the concentration for half-maximal inhibition (IC50) in data set [1] (Homo sapiens, MDA-MB-231, 24 h) is above 50 µM; in data set [2] (Homo sapiens, T47D, 24 h), above 50 µM; in data set [3] (Homo sapiens, MCF7, 24 h) it was above 50 µM. For the same compound, the HC50 in the data set with human erythrocytes (setting [4]) is 17.4 ± 0.57 µM. The “hemolytic activity (in words)” value with human erythrocytes (human erythrocytes) is given as “moderate hemolytic activity; also recorded: low hemolytic activity”. In “in vitro”, the IC50 at 24 h was above 50 µM.
As for `COC1C(O)C(COS(=O)(=O)O)OC(OC2C(O)C(COS(=O)(=O)O)OC(OC3C(C)OC(OC4C(OC5CCC6(C)C7CCC8(C)C(C(C)=O)CCC8(C)C7=CCC6C5(C)C)OCC(OS(=O)(=O)O)C4O)C(OC4OCC(O)C(O)C4O)C3O)C2O)C1O` (stereo not drawn) [koreoside A], the IC50 in data set [1] (Homo sapiens, MDA-MB-231, 24 h) is above 50 µM; in data set [2] (Homo sapiens, T47D, 24 h) it was above 50 µM; in data set [3] (Homo sapiens, MCF7, 24 h), above 50 µM. Besides, in the data set with human erythrocytes (setting [4]), the HC50 was above 50 µM. In addition, the “hemolytic activity (in words)” value in the data set on human erythrocytes (human erythrocytes) is reported as “did not show hemolytic or cytotoxic activity; also recorded: complete loss of the activity”. The compound further registered a half-maximal inhibitory concentration (IC50) at 24 h in the data set “in vitro” above 50 µM.
Turning to `C=C(C)CCCC1(C)OC(=O)C23CCC4C(=CCC5C(C)(C)C(OC6OCC(OS(=O)(=O)O)C(O)C6OC6OC(CO)C(OC7OC(CO)C(O)C(OC8OC(CO)C(O)C(OC)C8O)C7O)C(O)C6OC6OCC(O)C(O)C6O)CCC45C)C2(C)CC(OC(C)=O)C13` (stereo not drawn) [okhotoside A2-1], the concentration for half-maximal inhibition (IC50) in data set [1] (Homo sapiens, MDA-MB-231, 24 h) was determined as 12.6 ± 0.16 µM; in data set [2] (Homo sapiens, T47D, 24 h), 11.9 ± 0.42 µM; in data set [3] (Homo sapiens, MCF7, 24 h), 39.81 ± 0.18 µM. Also, the “Selectivity Index (SI), MDA-MB-231” value in data set [1] came to 0.97. Further, in data set [2], the “Selectivity Index (SI), T-47D” value is recorded as 1.03. For the same compound, the HC50 in the data set on human erythrocytes (setting [4]) is 1.53 ± 0.14 µM. For the same compound, the “Selectivity Index (SI), MCF-7” value in data set [3] was 0.31. The half-inhibitory concentration (IC50) at 24 h in the data set “in vitro” stood at 12.2 ± 0.16 µM.
